# Measured values as given in ChEMBL document CHEMBL1201862, “PubChem BioAssay data set” (2004).
# Where “and” joins values, the source holds several entries; their conditions need not be identical. Identical values can stand only once. Calls of active or inactive are those of the source.
# Assays:
# [1] = molecular target: T1, Genome polyprotein (Hepatitis C virus, UniProt Q2Q167); assay: HCV core protein dimerization inhibitors, dose response, biochemical, TR-FRET (AID 2159); design: species or system Hepacivirus hominis;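 further: blocks dimerization of HCV core protein measured by TR-FRET between tagged core106 pairs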
# T1 sequence (Q2Q167 whole entry): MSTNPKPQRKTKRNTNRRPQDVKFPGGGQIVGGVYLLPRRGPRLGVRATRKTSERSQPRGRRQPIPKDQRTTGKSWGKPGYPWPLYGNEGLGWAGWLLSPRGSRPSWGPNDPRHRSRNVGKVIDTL
# [2] = molecular target: Protein Rev (Human immunodeficiency virus type 1 group M subtype B (isolate WMJ22)(HIV-1), UniProt P05866); assay: HIV-1 Rev-RRE RNA binding disruptors, dose response, biochemical, protein-RNA interaction (AID 842); design: species or system Human immunodeficiency virus 1
# [3] = molecular target: T2, Voltage-gated N-type calcium channel alpha-1B subunit/Amyloid beta A4 precursor protein-binding family A member 1 (Homo sapiens, UniProt Q00975+Q02410); format: protein assay
# [4] = molecular target: T2, Voltage-gated N-type calcium channel alpha-1B subunit/Amyloid beta A4 precursor protein-binding family A member 1; format: protein assay; remark: listed apart in the source
# [5] = molecular target: T3, Induced myeloid leukemia cell differentiation protein Mcl-1 (Homo sapiens, UniProt Q07820); assay: MCL1-BIM BH3 interaction inhibitors, dose response, biochemical, fluorescence polarization, BIM-BH3 peptide, 1536-well (AID 2217)
# [6] = molecular target: Protein-tyrosine kinase 2-beta (Homo sapiens, UniProt Q14289);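 further: potency of inhibitors of PYK2 kinase phosphorylation of poly-GT substrate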
# [7] = molecular target: Bcl-2-like protein 1 (Homo sapiens, UniProt Q07817); assay: BCL-XL inhibitors, dose response, selectivity assay for MCL1 inhibitor project, biochemical, fluorescence polarization, 1536-well (AID 2218)
# [8] = molecular target: T3, Induced myeloid leukemia cell differentiation protein Mcl-1; format: functional
# [9] = molecular target: SUMO E1/E2 (Homo sapiens, UniProt P63279+Q9UBE0+Q9UBT2); assay: SAR analysis of SUMOylation using HTRF in an in-Vitro dose response assay. [Related pubchem assays (depositor defined):AID2006, AID2011, AID2018, AID2069, AID2658]; format: functional
# [10] = molecular target: T2, Voltage-gated N-type calcium channel alpha-1B subunit/Amyloid beta A4 precursor protein-binding family A member 1; assay: disruptors of Mint-PDZ/N-type channel peptide interaction – biochemical, HTRF, set 2, SAR follow-up (AID 434980); format: functional
# [11] = molecular target: T2, Voltage-gated N-type calcium channel alpha-1B subunit/Amyloid beta A4 precursor protein-binding family A member 1; assay: disruptors of Mint-PDZ/N-type channel peptide interaction – biochemical, HTRF, SAR follow-up (AID 2489); format: functional
# [12] = molecular target: DNA (cytosine-5)-methyltransferase 1 (Homo sapiens, UniProt P26358); assay: DNMT1 methyltransferase inhibitors, confirmation, biochemical, fluorescent molecular beacon (AID 602386); format: functional
# [13] = molecular target: T4, Probable nicotinate-nucleotide adenylyltransferase (Staphylococcus aureus (strain N315), UniProt P65502); format: functional, Staphylococcus aureus subsp. aureus N315;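 on IC50 Mean: confirmatory dose-response retesting of NadD inhibitor hits first found in an ultra-high-throughput screen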
# [14] = molecular target: T4, Probable nicotinate-nucleotide adenylyltransferase; format: functional, Staphylococcus aureus subsp. aureus N315; settings: read-out: IC50_Mean
# [15] = molecular target: T5, Delta-type opioid receptor (Homo sapiens, UniProt P41143); assay: HTS Image-Based Screen for Antagonists of the DOR Receptor. [Related pubchem assays (depositor defined):AID1777, AID1785, AID1786, AID2133]; format: functional
# [16] = molecular target: Mu-type opioid receptor (Homo sapiens, UniProt P35372); assay: HTS Image-Based Screen for Agonists of the MOR Receptor. [Related pubchem assays (depositor defined):AID1777, AID1785, AID1786, AID2133]; format: functional;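 further: imaging of beta-arrestin GFP recruitment into spots after receptor activation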
# [17] = molecular target: T5, Delta-type opioid receptor; assay: HTS Image-Based Screen for Agonists of the DOR Receptor. [Related pubchem assays (depositor defined):AID1777, AID1786, AID2133]; format: functional
# [18] = molecular target: T6, Kappa-type opioid receptor (Homo sapiens, UniProt P41145); format: functional
# [19] = molecular target: Beta-galactosidase (Escherichia coli, UniProt Q8VNN2); format: functional
# [20] = molecular target: T6, Kappa-type opioid receptor; format: functional; remark: listed apart in the source
# [21] = molecular target: T7, Ubiquitin-conjugating enzyme E2 N (Homo sapiens, UniProt P61088); format: functional;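 further: Dose-response confirmation in a TR-FRET assay detecting UBC13-driven polyubiquitin chain formation, inhibition measured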
# T7 sequence (P61088 whole entry): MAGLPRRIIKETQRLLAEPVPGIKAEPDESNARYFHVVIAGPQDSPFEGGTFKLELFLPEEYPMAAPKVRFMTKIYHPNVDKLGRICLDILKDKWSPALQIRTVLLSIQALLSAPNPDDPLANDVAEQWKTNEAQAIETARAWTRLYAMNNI
# [22] = molecular target: Paired box protein Pax-8 (Homo sapiens, UniProt Q06710); assay: inhibitors of PAX8-driven TPO luciferase reporter, dose response, RMG-I cells, cherry-pick (AID 687027); format: functional, cell-based;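 further: luciferase reporter driven by Pax8 target thyroperoxidase promoter measured by SteadyGlo luminescence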
# [23] = system: HEK293; assay: NOD1 signaling inhibitors, primary screen, cell-based, luminescence, uHTS (AID 1578); format: functional; settings: Homo sapiens
# [24] = system: HEK293; assay: cells; format: functional, cell-based; settings: Homo sapiens
# [25] = system: HEK293; assay: cells; format: functional, cell-based; settings: Homo sapiens; remark: listed apart in the source
# [26] = system: HEK293; assay: NOD2 signaling inhibitors in MDP-stimulated cells, cell-based, uHTS, luminescence (AID 2001); format: functional; settings: Homo sapiens
# [27] = inhibitors of intracellular T. cruzi replication, confirmation, NIH3T3 host cells, beta-gal luminescence (AID 2044); format: functional, cell-based;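 further: intracellular parasites grown in NIH/3T3 mouse fibroblasts as host cells; luminescent beta-galactosidase reporter signal from transgenic T. cruzi replicating inside host cells; inhibitors lower the luminescence signal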
# [28] = cytotoxicity toward NIH3T3 fibroblasts, dose response, counter-screen, cell-based, ATP luminescence, mouse fibroblasts (AID 2010); format: functional;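 further: cells exposed to compound for about 90 hours before reading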
# [29] = molecular target: Tumor necrosis factor (Homo sapiens, UniProt P01375); assay: TNFa-triggered NF-kB activation inhibitors, SAR follow-up, cell-based, revised (AID 2337); format: functional
# [30] = molecular target: Nucleotide-binding oligomerization domain-containing protein 1 (Homo sapiens, UniProt Q9Y239); assay: NOD1 signaling inhibitors, SAR follow-up, revised (AID 2333); format: functional
# [31] = molecular target: Nucleotide-binding oligomerization domain-containing protein 2 (Homo sapiens, UniProt Q9HC29); assay: PubChem AID 2334; format: functional
# [32] = system: HEK293; assay: cells; settings: Homo sapiens
# T2 sequence (Q00975 whole entry): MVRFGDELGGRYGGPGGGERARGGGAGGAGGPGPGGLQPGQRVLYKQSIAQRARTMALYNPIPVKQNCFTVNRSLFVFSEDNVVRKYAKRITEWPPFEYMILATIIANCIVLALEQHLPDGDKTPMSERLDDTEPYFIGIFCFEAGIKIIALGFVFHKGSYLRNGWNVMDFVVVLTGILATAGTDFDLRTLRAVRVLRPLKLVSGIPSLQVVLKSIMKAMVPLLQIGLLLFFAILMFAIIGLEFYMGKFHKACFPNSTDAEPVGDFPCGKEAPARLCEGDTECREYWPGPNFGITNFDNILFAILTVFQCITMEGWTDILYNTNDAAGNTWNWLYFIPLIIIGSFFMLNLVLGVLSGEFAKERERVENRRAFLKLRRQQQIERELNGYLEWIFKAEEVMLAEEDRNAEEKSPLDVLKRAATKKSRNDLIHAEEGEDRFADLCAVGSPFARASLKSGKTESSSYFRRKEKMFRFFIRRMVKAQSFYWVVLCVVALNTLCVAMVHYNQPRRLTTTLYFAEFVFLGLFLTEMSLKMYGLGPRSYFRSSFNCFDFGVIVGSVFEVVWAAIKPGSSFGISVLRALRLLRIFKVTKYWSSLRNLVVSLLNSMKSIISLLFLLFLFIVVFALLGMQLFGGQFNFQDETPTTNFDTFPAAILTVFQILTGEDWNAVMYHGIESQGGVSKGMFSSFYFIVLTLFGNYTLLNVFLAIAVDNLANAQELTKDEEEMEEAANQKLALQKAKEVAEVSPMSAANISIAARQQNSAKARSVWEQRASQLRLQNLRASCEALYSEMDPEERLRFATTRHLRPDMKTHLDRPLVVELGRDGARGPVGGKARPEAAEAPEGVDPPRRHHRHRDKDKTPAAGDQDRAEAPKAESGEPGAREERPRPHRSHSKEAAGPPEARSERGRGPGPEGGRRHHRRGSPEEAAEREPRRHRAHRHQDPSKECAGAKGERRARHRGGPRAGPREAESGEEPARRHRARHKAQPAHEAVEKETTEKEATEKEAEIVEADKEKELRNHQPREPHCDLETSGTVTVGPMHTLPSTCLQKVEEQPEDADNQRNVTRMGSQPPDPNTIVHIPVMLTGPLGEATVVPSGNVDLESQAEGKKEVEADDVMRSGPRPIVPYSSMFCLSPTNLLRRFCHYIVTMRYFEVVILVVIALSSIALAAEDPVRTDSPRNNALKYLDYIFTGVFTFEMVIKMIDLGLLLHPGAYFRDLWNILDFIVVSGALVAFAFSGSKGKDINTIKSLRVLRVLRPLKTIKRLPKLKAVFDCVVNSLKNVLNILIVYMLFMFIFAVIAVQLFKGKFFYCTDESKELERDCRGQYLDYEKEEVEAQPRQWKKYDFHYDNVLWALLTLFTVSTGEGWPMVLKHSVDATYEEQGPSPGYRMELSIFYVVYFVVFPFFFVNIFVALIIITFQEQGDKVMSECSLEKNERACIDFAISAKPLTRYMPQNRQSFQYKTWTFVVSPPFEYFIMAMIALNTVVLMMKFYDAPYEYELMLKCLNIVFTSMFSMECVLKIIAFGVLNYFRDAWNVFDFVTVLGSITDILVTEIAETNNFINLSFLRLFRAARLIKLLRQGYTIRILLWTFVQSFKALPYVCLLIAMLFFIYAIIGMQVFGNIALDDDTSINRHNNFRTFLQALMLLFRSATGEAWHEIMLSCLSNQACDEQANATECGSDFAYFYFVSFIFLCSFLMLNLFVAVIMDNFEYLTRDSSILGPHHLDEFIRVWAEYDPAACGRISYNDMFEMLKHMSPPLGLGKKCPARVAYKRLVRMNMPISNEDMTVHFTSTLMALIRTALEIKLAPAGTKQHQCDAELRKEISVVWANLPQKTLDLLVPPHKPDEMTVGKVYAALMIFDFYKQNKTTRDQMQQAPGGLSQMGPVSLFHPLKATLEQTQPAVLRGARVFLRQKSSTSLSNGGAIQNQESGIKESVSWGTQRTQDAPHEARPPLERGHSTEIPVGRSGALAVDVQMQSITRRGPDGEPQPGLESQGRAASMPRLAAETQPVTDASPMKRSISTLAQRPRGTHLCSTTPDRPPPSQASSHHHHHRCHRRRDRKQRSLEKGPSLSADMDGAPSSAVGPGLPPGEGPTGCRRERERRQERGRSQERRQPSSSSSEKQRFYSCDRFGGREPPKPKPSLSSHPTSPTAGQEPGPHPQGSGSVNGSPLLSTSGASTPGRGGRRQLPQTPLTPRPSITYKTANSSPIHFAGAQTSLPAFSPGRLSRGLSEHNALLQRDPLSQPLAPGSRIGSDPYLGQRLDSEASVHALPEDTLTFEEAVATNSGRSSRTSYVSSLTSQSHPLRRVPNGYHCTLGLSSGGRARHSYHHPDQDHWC
# T2 sequence (Q02410 whole entry): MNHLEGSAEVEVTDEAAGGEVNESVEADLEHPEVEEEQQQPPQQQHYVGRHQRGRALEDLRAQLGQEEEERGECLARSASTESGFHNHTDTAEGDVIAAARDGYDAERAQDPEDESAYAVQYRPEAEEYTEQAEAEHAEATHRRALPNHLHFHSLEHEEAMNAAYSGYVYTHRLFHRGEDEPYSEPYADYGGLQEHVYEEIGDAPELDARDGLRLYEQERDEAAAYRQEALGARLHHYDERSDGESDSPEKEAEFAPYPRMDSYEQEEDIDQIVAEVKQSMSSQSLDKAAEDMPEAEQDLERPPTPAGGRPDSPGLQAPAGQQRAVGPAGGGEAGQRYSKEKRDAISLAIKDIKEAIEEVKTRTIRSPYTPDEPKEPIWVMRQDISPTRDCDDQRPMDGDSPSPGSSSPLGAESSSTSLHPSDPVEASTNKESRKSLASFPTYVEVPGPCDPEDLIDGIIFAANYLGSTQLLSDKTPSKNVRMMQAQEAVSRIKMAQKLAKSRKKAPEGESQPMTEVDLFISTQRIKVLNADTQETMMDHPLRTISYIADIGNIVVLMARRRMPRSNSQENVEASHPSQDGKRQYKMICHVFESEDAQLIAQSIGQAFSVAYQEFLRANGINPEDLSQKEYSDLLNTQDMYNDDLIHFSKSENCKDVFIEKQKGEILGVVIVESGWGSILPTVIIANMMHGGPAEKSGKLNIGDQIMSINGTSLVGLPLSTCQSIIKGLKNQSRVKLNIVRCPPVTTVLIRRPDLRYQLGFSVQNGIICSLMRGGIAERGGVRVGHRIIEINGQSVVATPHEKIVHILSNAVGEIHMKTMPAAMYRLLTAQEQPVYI
# T6 sequence (P41145 whole entry): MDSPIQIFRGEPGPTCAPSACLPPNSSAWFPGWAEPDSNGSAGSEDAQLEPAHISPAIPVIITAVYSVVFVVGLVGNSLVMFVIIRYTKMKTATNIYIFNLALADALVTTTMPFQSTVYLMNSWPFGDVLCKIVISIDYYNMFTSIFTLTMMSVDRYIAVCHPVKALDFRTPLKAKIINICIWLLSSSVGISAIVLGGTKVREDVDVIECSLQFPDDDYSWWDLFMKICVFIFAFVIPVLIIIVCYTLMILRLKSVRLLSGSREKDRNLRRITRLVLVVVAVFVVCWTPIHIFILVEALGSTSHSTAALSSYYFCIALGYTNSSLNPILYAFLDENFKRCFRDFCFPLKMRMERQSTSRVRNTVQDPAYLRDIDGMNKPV
# T5 sequence (P41143 whole entry): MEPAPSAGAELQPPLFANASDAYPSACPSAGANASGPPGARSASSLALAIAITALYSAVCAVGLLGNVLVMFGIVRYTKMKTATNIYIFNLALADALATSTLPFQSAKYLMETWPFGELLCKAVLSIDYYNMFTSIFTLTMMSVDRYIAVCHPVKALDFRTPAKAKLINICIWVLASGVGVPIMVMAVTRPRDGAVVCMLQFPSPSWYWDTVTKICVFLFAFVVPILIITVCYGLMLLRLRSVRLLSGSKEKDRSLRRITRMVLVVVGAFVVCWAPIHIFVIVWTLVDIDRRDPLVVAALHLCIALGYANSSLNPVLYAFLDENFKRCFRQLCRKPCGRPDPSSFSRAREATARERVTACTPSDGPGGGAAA
# Chain of SUMO E1/E2 (Q9UBE0 whole entry): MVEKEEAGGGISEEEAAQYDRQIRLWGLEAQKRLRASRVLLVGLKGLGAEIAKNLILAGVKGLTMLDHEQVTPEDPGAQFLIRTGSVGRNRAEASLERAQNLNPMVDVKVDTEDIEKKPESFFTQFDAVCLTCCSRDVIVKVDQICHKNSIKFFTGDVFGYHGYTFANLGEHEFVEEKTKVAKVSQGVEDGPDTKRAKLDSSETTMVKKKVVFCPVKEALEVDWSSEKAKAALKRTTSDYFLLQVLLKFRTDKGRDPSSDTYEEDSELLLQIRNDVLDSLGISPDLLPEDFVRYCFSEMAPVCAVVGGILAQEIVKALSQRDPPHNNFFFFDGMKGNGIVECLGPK
# Chain of SUMO E1/E2 (Q9UBT2 whole entry): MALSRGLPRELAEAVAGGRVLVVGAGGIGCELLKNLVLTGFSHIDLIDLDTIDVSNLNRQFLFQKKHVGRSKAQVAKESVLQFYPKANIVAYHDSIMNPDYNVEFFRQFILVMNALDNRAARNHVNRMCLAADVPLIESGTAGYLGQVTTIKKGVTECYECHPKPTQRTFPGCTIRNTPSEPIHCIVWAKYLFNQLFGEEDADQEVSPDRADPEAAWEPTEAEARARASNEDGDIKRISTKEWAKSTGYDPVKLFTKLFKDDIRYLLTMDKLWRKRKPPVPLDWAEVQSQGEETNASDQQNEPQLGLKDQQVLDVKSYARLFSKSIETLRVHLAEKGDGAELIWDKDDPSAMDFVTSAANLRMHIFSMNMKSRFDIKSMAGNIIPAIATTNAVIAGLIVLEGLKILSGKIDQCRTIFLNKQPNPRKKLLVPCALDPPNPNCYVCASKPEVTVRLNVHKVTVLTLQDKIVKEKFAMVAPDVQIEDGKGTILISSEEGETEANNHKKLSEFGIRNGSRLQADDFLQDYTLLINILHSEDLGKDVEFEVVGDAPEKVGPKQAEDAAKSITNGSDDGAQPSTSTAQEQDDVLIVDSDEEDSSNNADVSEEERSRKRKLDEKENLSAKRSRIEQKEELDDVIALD
# Chain of SUMO E1/E2 (P63279 whole entry): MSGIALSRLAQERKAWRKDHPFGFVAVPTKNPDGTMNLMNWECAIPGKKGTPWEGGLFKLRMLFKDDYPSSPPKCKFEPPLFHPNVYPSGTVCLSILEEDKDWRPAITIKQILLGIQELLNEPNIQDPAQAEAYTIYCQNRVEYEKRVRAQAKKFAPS
smiles,measurement,setting,value
O=C(N/N=C/c1cccc(F)c1)c1cc(-c2ccco2)nc2ccccc12,IC50,[1],> 49.8 µM (not active)
same,IC50,[2],> 79.4 µM (not active)
same,IC50,[3],3.18 µM (active)
same,IC50,[4],8.21 µM (active)
same,IC50,[5],7.19 µM (active)
same,IC50,[6],2.25 µM (active)
same,IC50,[7],> 109 µM (not active)
same,IC50,[8],1.67 µM (active)
same,IC50,[9],7.16 µM (active) and 9.07 µM (active)
same,IC50,[10],12.9 µM (active) and 4.79 µM (active)
same,IC50,[11],> 56.8 µM (inactive) and 8.96 µM (active)
same,IC50,[12],4.81 µM (active)
same,IC50,[13],7.33 µM (active)
same,IC50,[14],21.1 µM (active)
Cc1ccc(C(=O)N[C@@H](C)CN2C3=NC[C@@H](Cc4ccccc4)N3C[C@H]2Cc2ccc(O)cc2)cc1Br,IC50,[15],> 32 µM (inactive)
same,EC50,[16],> 32 µM (inactive)
same,EC50,[17],31.2 µM (inactive)
same,IC50,[18],3.16 µM (active)
same,EC50,[19],> 31.5 µM (inactive)
same,IC50,[20],1.44 µM
same,IC50,[21],> 20 µM (inactive)
same,AC50,[22],24.8 µM (active)
COc1ccc(C(=O)NC(=S)N(C)C2CCCCC2)cc1Br,EC50,[23],> 20 µM (inactive)
same,IC50,[24],> 20 µM (inactive)
same,IC50,[25],> 20 µM (inactive)
same,IC50,[26],6.75 µM (inactive)
same,EC50,[27],3.6 µM (active)
same,EC50,[28],12.4 µM (active)
same,IC50,[29],> 20 µM (inactive)
same,IC50,[30],> 20 µM (inactive)
same,IC50,[31],> 20 µM (inactive)
same,IC50,[32],> 20 µM (inactive)
